Holding throughout (test): ≥ marks a high value that may be exact or a test limit, other limits are often not marked, values filed in µg/mL are converted to µM
For experiment [1], the system named is Bacillus subtilis 168.
The subject of experiment [2] is Candida albicans F7-39/IDE99.
The test system of experiment [3] is Escherichia coli B.
Experiment [4] has as its system Micrococcus luteus CCM 144.
In experiment [5] the test system is Pseudomonas aeruginosa ATCC 27853.
The subject of experiment [6] is Pseudomonas aeruginosa.
Experiment [7] relates to Staphylococcus aureus 1.
Experiment [8] relates to Staphylococcus aureus ATCC 43300.
Experiment [9] concerns Staphylococcus aureus.
The test system of experiment [10] is Staphylococcus epidermidis.
For experiment [11], the system named is Fusarium graminearum PH-1.
Experiment [12] concerns Bacillus subtilis.
In experiment [13] the test system is Escherichia coli.
Experiment [14] deals with Proteus vulgaris.
The test system of experiment [15] is Salmonella typhimurium.
The test system of experiment [16] is Streptococcus pyogenes.

In brackets after ≈: the same amount, converted by molar mass.

Turning to `CC[C@H](C)[C@H](NC(=O)CN)C(=O)N[C@@H](CC(C)C)C(=O)N[C@@H](CO)C(=O)N[C@@H](CO)C(=O)N[C@@H](CC(C)C)C(=O)N[C@@H](Cc1c[nH]c2ccccc12)C(=O)N[C@@H](CCCCN)C(=O)N[C@@H](CCCCN)C(=O)N[C@@H](CC(C)C)C(=O)N[C@@H](CCCCN)C(=O)N[C@@H](CCCCN)C(=O)N[C@@H](Cc1c[nH]c2ccccc12)C(=O)N[C@H](C(=O)N[C@@H](C)C(=O)N[C@@H](CCCCN)C(N)=O)[C@@H](C)CC` [GILSSLWKKLKKWIAK], the MIC in experiment [1] was found to be 7 µM (≈ 13.3 µg/mL); in [2], 13 µM (≈ 24.7 µg/mL); in experiment [3], 2.5 µM (≈ 4.75 µg/mL); in experiment [4], 3 µM (≈ 5.7 µg/mL); in experiment [5] it was 13 µM (≈ 24.7 µg/mL); in experiment [6] it was 24 µM (≈ 45.6 µg/mL). In addition, the MIC in [7] came out at 1.8 µM (≈ 3.42 µg/mL); in experiment [8] it was 2.5 µM (≈ 4.75 µg/mL); in experiment [9] it was 2 µM (≈ 3.8 µg/mL); in experiment [10], 1.6 µM (≈ 3.04 µg/mL).

Consider `CC[C@H](C)[C@H](NC(=O)[C@H](CCCCN)NC(=O)[C@H](CCCCN)NC(=O)[C@H](CC(C)C)NC(=O)[C@H](CCCCN)NC(=O)[C@H](CCCCN)NC(=O)[C@H](Cc1c[nH]c2ccccc12)NC(=O)[C@H](CC(C)C)NC(=O)[C@H](CO)NC(=O)[C@H](CO)NC(=O)[C@H](CC(C)C)NC(=O)[C@H](CCCCN)NC(=O)CN)C(=O)N[C@H](C(=O)N[C@@H](C)C(=O)N[C@@H](CCCCN)C(N)=O)[C@@H](C)CC` [GKLSSLWKKLKKIIAK], for which the minimum inhibitory concentration (MIC) in experiment [1] was 7 µM (≈ 12.9 µg/mL); in [2], at least 34 µM; in experiment [3], 20 µM (≈ 36.8 µg/mL); in [4], 3 µM (≈ 5.52 µg/mL); in [5], 6.8 µM (≈ 12.5 µg/mL); in experiment [6] it was 19 µM (≈ 35 µg/mL). For the same compound, the MIC in experiment [7] turned out to be 11 µM (≈ 20.2 µg/mL); in experiment [8] it was 26 µM (≈ 47.8 µg/mL); in experiment [9], 27 µM (≈ 49.7 µg/mL); in experiment [10] it was 2.5 µM (≈ 4.6 µg/mL).

The compound `NCC(=O)N1CCC[C@H]1C(=O)N[C@H]1CSSC[C@@H](C(=O)O)NC(=O)CNC(=O)[C@H](CO)NC(=O)[C@H](Cc2ccccc2)NC1=O` [GPCFSGC] showed a minimum inhibitory concentration (MIC) in [11] of at least 48 µM.

The compound `C[C@H](NC(=O)[C@H](Cc1ccccc1)NC(=O)CNC(=O)[C@@H](N)CCCN=C(N)N)C(=O)N[C@@H](CCCN=C(N)N)C(=O)N[C@@H](CCCN=C(N)N)C(=O)O` [RGFARR] displayed an MIC in experiment [11] of at least 96 µM.

Take `CC[C@H](C)[C@H](NC(=O)[C@@H](N)Cc1ccc(O)cc1)C(=O)N1CCC[C@H]1C(=O)N[C@@H](CCC(N)=O)C(=O)N1CCC[C@H]1C(=O)N[C@@H](CCCN=C(N)N)C(=O)N1CCC[C@H]1C(=O)N1CCC[C@H]1C(=O)N[C@@H](Cc1cnc[nH]1)C(=O)N1CCC[C@H]1C(=O)N[C@@H](CCCN=C(N)N)C(=O)N[C@@H](CC(C)C)C(=O)O` [YIPQPRPPHPRL]: the MIC was at least 64 µM in [12]; 64 µM (≈ 94.1 µg/mL) in experiment [13]; at least 64 µM in experiment [14]; 64 µM (≈ 94.1 µg/mL) in experiment [6]; 0.5 µM (≈ 0.735 µg/mL) in experiment [15]; at least 64 µM in experiment [10]. This compound had a minimal inhibitory concentration (MIC) in experiment [16] of at least 64 µM.

Usually MIC stands for the lowest concentration found to suppress growth.

The values above are taken from DBAASP.
